Measurements from ChEMBL document CHEMBL1130606, “Synthesis and cytotoxicity of acetyl-4H,9H-naphtho[2,3-b]thiophene-4,9-diones” (1998).

How the values were obtained:
KB = test: Effective cytotoxic dose against KB cells was evaluated; assay type: functional; details: Homo sapiens, read-out: ED50 (the source's name)
NCI-H23 [1] = test: Compound was evaluated for cytotoxicity against NCI-H23 non small cell kung cancer cell line; assay type: functional; details: Homo sapiens
NCI-H460 [2] = test: Compound was evaluated for cytotoxicity against NCI-H460 non small cell kung cancer cell line; assay type: functional; details: Homo sapiens
MCF7 [3] = test: Compound was evaluated for cytotoxicity against MCF-7 breast cancer cell line; assay type: functional; details: Homo sapiens
LOX IMVI = test: Compound was evaluated for cytotoxicity against LOX IMVI melanoma cell line; assay type: functional; details: Homo sapiens
SW-620 [4] = test: Compound was evaluated for cytotoxicity against SW-620 colon cancer cell line; assay type: functional; details: Homo sapiens
CCRF-CEM = test: Compound was evaluated for cytotoxicity against CCRF-CEM leukemia cell line; assay type: functional; details: Homo sapiens
MOLT-4 = test: Compound was evaluated for cytotoxicity against MOLT-4 leukemia cell line; assay type: functional; details: Homo sapiens
SR = test: Compound was evaluated for cytotoxicity against SR leukemia cell line; assay type: functional; details: Homo sapiens
MDA-MB-435 = test: Compound was evaluated for cytotoxicity against MDA-MB-435 breast cancer cell line; assay type: functional; details: Homo sapiens
SNB-19 [5] = test: Compound was evaluated for cytotoxicity against SNB-19 CNS cancer cell line; assay type: functional; details: Homo sapiens
OVCAR-3 = test: Compound was evaluated for cytotoxicity against OVCAR-3 Ovarian cancer cell line; assay type: functional; details: Homo sapiens
NCI-H522 [6] = test: Compound was evaluated for cytotoxicity against […] non small cell kung cancer cell line; assay type: functional; details: Homo sapiens
SK-MEL-5 = test: Compound was evaluated for cytotoxicity against SK-MEL-5 melanoma cell line; assay type: functional; details: Homo sapiens
NCI/ADR-RES = test: Compound was evaluated for cytotoxicity against MCF 7/ADR-RES breast cancer cell line; details: Homo sapiens
MDA-N = test: Compound was evaluated for cytotoxicity against MDA-N breast cancer cell line; assay type: functional; details: Homo sapiens
SF-539 [7] = test: Compound was evaluated for cytotoxicity against SF-539 CNS cancer cell line; assay type: functional; details: Homo sapiens
HCT-15 [8] = test: Compound was evaluated for cytotoxicity against HCT-15 colon cancer cell line; assay type: functional; details: Homo sapiens
IGROV-1 = test: Compound was evaluated for cytotoxicity against IGROV1 Ovarian cancer cell line; assay type: functional; details: Homo sapiens
NCI-H23 [9] = test: Compound was evaluated for cytotoxicity against NCI-H23 non small cell lung cancer cell line; assay type: functional; details: Homo sapiens
SF-539 [10] = test: Compound was evaluated for cytotoxicity against SF-539 CNS cancer cell line; details: Homo sapiens
SNB-19 [11] = test: Compound was evaluated for cytotoxicity against SNB-19 CNS cancer cell line; details: Homo sapiens
HCT-15 [12] = test: Compound was evaluated for cytotoxicity against HCT-15 colon cancer cell line; details: Homo sapiens
MCF7 [13] = test: Compound was evaluated for cytotoxicity against MCF-7 breast cancer cell lines; assay type: functional; details: Homo sapiens
NCI-H522 [14] = test: Compound was evaluated for cytotoxicity against NCI-H522 non small cell lung cancer cell line; details: Homo sapiens
NCI-H460 [15] = test: Compound was evaluated for cytotoxicity against NCI-H460 non small cell lung cancer cell line; assay type: functional; details: Homo sapiens
SW-620 [16] = test: Compound was evaluated for cytotoxicity against SW-620 colon cancer cell line; details: Homo sapiens
NCI-H522 [17] = test: Compound was evaluated for cytotoxicity against […] non small cell lung cancer cell line; assay type: functional; details: Homo sapiens

Row | Compound | EC50 (KB) | GI50 (MCF7 [3]) | GI50 (LOX IMVI) | GI50 (SW-620 [4]) | GI50 (CCRF-CEM) | GI50 (MOLT-4) | GI50 (MDA-MB-435) | GI50 (SNB-19 [5]) | GI50 (OVCAR-3) | GI50 (SK-MEL-5) | GI50 (NCI/ADR-RES) | GI50 (MDA-N) | GI50 (SF-539 [7]) | GI50 (HCT-15 [8]) | GI50 (IGROV-1) | GI50 (NCI-H23 [9]) | GI50 (NCI-H460 [15]) | also measured
1 | CC(=O)c1ccc2c(c1)C(=O)c1scc(C(C)=O)c1C2=O | 450 nM |  |  |  |  |  |  |  |  |  |  |  |  |  |  |  |  | 
2 | CC(=O)c1ccc2c(c1)C(=O)c1sc(C(C)=O)cc1C2=O | ~1500 nM | 316 nM | 219 nM | 204 nM | 182 nM | 66.1 nM | 178 nM | 1350 nM | 331 nM | 174 nM | 324 nM | 316 nM | 355 nM | 40.7 nM | 427 nM |  |  | GI50 (NCI-H23 [1]): 603 nM; GI50 (NCI-H460 [2]): 363 nM; GI50 (SR): 24.6 nM; GI50 (NCI-H522 [6]): 224 nM
3 | CC(=O)c1csc2c1C(=O)c1ccccc1C2=O |  |  | 2340 nM |  | 1550 nM | < 10 nM | 324 nM |  | 3550 nM | 170 nM | 2880 nM | 933 nM |  |  | 2450 nM | 1050 nM | 1320 nM | GI50 (SF-539 [10]): 2040 nM; GI50 (SNB-19 [11]): 1780 nM; GI50 (HCT-15 [12]): 17400 nM; GI50 (MCF7 [13]): 2090 nM; GI50 (NCI-H522 [14]): 1740 nM; GI50 (SW-620 [16]): 2190 nM
4 | CC(=O)c1cc2c(s1)C(=O)c1ccccc1C2=O |  | 1700 nM | 347 nM | 457 nM | 1000 nM | 2040 nM | 339 nM | 501 nM | 501 nM | 347 nM | 1910 nM | 1200 nM | 759 nM | 708 nM | 1780 nM | 447 nM | 457 nM | GI50 (NCI-H522 [17]): 407 nM
5 | CC(=O)c1cc2c(o1)C(=O)c1ccccc1C2=O [NAPABUCASIN] | 4200 nM |  |  |  |  |  |  |  |  |  |  |  |  |  |  |  |  | 
